Square brackets hold non-standard residues; d marks the D form. * marks the point of attachment. Myristoyl = CCCCCCCCCCCCCC(=O)*
Key:
[1] = system: nutritionally induced type 2 diabetes in Psammomys obesus; assay: Nutritionally induced diabetes in Psammomys obesus model: whole blood glucose by glucometer; assay type: in vivo; conditions: diabetic Psammomys on high energy diet; three intraperitoneal injections of 10 mg/kg, 5 days apart
Experimental: Psammomys obesus gerbils males or females weighing 160-200 g in the fed state were used. […] The animals were then injected intraperitoneally with 10 mg/kg of the peptide dissolved in dimethylsulphoxide solvent (or with solvent alone in controls). […] Whole blood glucose was measured by a glucometer on a minidroplet of blood withdrawn from the end of the tail. Three injections were given 5 days apart and after 14 days or earlier the high blood glucose levels of the animals became normal, the controls remained at the 300-400 mg/dl level. The normal level lasted at least for 3 to 5 days after the last injection. […] The line with asterisk represents the control animal. Other lines are those of individual injected animals.

pancreatic beta cells = assay: Histology (hematoxylin-eosin) and insulin immunostaining of pancreatic beta cells; assay type: in vivo, Psammomys obesus; conditions: diabetic Psammomys, peptide treatment for 14 days
Experimental: For assaying the insulin signaling pathway components and electronmicroscopic examination of the pancreatic beta cells, animals were killed by decapitation in the fed state in the morning three days after the third intraperitoneal peptide injection. Blood was collected and serum insulin levels was determined by radioimmunoassay, using anti-human antibodies. The gastrocnemius muscles from both legs were excised, immediately frozen in liquid nitrogen, and then stored at −80° C. The electronmicroscopic examination of pancreatic beta cells was performed on slices of pancreatic paraffin blocks according to the method of Joins et al., 2002, Virchovs Arch 440: 63-69. The histologic and immunostaining properties of the pancreatic beta cells in diabetic Psammomys gerbils injected with peptide 12 were investigated in order to check whether the beta cells are protected from hyperglycemia. […] FIGS. 5A and 5B describe representative hematoxylin-eosin stained beta cell and insulin immunostained beta cells in diabetic and treated animals.

PKB/AKT = assay: Immunoblot of serine phosphorylation of PKB/AKT in muscle lysates; assay type: in vivo, Psammomys obesus; conditions: treated vs non-treated animal
Experimental: (§1) For assaying the insulin signaling pathway components and electronmicroscopic examination of the pancreatic beta cells, animals were killed by decapitation in the fed state in the morning three days after the third intraperitoneal peptide injection. Blood was collected and serum insulin levels was determined by radioimmunoassay, using anti-human antibodies. The gastrocnemius muscles from both legs were excised, immediately frozen in liquid nitrogen, and then stored at −80° C.
(§2) Immunoblot analysis of insulin signaling molecules were performed using muscle homogenates prepared in a homogenization buffer that contained 20 mmol/l HEPES, 8 mmol/l EDTA, 0.2 mmol/l Na3VO4, 10 mmol/l Na4P2O7, 2.5 mmol/l, 2 mM phenylmathylsulfonyl fluorid, 160 mmol/l NaF, 2 mmol/l DCA, 1% Triton X-100, 1% protease inhibitor cocktail and 1% phaphatase inhibitor cocktail (Sigma®) pH 7.4. Equal amount of cell lysate were dissolved in Laemmli buffer and subjected to SDS-PAGE gel separation. The separated proteins were transferred to nitrocellulose membranes. […] All protein data were quantified by densitometry. […]
(§3) The extent of phosphorylation of the components of the insulin signaling pathway (signal proteins) in the muscle lysates of the treated and non-treated animals “ ” was investigated. FIG. 6 presents the relative extent of serine phosphorylation of IRS by PKC as determined by immunobloting with a specific antibody. […]

[2] = system: serine phosphorylation of IRS by PKC; assay: Immunoblot of serine phosphorylation of IRS in muscle lysates; assay type: in vivo, Psammomys obesus; conditions: treated vs non-treated animal
Experimental: as §1, §2, §3

[3] = system: glucose transporter GLUT4 protein; assay: Immunoblot of GLUT4 protein amount in muscle lysates; assay type: in vivo, Psammomys obesus; conditions: treated vs non-treated animal
Experimental: as §1, §2, §3

Substance	hypoglycemic effect (blood glucose) [1]	immunostainable insulin content of the pancreatic beta cells (pancreatic beta cells)	beta cell structure (pancreatic beta cells; hematoxylin-eosin staining)	relative extent of phosphorylation of serine in PKB/AKT (PKB/AKT)	relative extent of serine phosphorylation of IRS by PKC [2]	relative amount of the glucose transporter GLUT4 protein [3]
myristoyl-Gly-Asn-Leu-Met-Phe-Gln-Ile-Gln-Arg-Ser-Arg-Lys-Phe-amide (Myristoyl-GNLMFQIQRSRKF-NH2; SMILES CCCCCCCCCCCCCC(=O)NCC(=O)N[C@@H](CC(N)=O)C(=O)N[C@@H](CC(C)C)C(=O)N[C@@H](CCSC)C(=O)N[C@@H](Cc1ccccc1)C(=O)N[C@@H](CCC(N)=O)C(=O)N[C@H](C(=O)N[C@@H](CCC(N)=O)C(=O)N[C@@H](CCCNC(=N)N)C(=O)N[C@@H](CO)C(=O)N[C@@H](CCCNC(=N)N)C(=O)N[C@@H](CCCCN)C(=O)N[C@@H](Cc1ccccc1)C(N)=O)[C@@H](C)CC) [peptide 16, myristoylated peptide analog derived from the αD region of PKC-ε]	hypoglycemic effect					
myristoyl-Gly-Phe-Gln-Ile-Gln-Arg-Ser-Arg-Lys-Phe-Asn-amide (Myristoyl-GFQIQRSRKFN-NH2; SMILES CCCCCCCCCCCCCC(=O)NCC(=O)N[C@@H](Cc1ccccc1)C(=O)N[C@@H](CCC(N)=O)C(=O)N[C@H](C(=O)N[C@@H](CCC(N)=O)C(=O)N[C@@H](CCCNC(=N)N)C(=O)N[C@@H](CO)C(=O)N[C@@H](CCCNC(=N)N)C(=O)N[C@@H](CCCCN)C(=O)N[C@@H](Cc1ccccc1)C(=O)N[C@@H](CC(N)=O)C(N)=O)[C@@H](C)CC) [peptide 12, myristoylated peptide analog derived from the αD region of PKC-ε]	hypoglycemic effect	replenished	markedly improved	reduced	much lower	elevated
myristoyl-Gly-Met-Ala-(D)Lys-Gln-Pro-Pro-Phe-amide (Myristoyl-GMA[dK]QPPF-NH2; SMILES CCCCCCCCCCCCCC(=O)NCC(=O)N[C@@H](CCSC)C(=O)N[C@@H](C)C(=O)N[C@H](CCCCN)C(=O)N[C@@H](CCC(N)=O)C(=O)N1CCC[C@H]1C(=O)N1CCC[C@H]1C(=O)N[C@@H](Cc1ccccc1)C(N)=O) [peptide 7, myristoylated peptide analog derived from the HJ region of PKC-ε]	hypoglycemic effect					
